The values below are quoted from earlier work in US20240228797A1, “LIQUID REPELLENT SLIPPERY SURFACES AND METHODS OF PREPARATION THEREOF” (priority 2021, published 2024).

As for `CC(C)CCCC(C)CCCC(C)CCCCC(C)CCCC(C)CCCC(C)C` (stereo not shown) [Squalane, squalane], the water solubility result was “extremely low water solubility”.
